Read-outs that look alike come from different tables or passages of the source.
What was measured:
GSPT1 [1] = target: T1, GSPT1 (Homo sapiens, UniProt P15170+Q96SW2); test: GSPT1 degradation by Compound 345 in cancer cell lines (western blot); format: cell-based; set-up: endogenous in cells; host or cells: MM1 S (ATCC CRL-2974); conditions: Compound 345 treated NSCLC lines plus Bortezomib 0.2 μM
Experimental: NCI-H1155 and ABC-1 were taken as representative of N-Myc positive NSCLC. NCI-H2023 and NCI-H441 as of N-Myc low representatives. 10A: western blotting analysis performed after 6 (NCI-H1155 and ABC-1) or 24 hr (NCI-H2023 and NCI-H441) posttreatment. […] 10B: corresponding densitometry analyses of GSPT1 normalized to GAPDH. DC50 and Dmax as indicated.
NCI-H1155 and ABC-1 were taken as representative of N-Myc high NSCLC. NCI-H2023 and NCI-H441 as of N-Myc low representatives. Left: densitometry analysis of GSPT1 normalized to GAPDH from western blotting following treatment with Compound 345 (as indicated). Right: 72 hr viability assay following treatment with Compound 345 as assessed by Cell Titer Glo. For both the GSPT1 expression plot and the cell viability plot, two Myc-driven cancer cell lines are represented by upright triangles and diamonds. Two non-Myc-driven cancer cell lines are represented by upside down triangles and circles.
NCI-H1155 and NCI-H2023 were taken as representative of N-Myc high and low NSCLC. 12A: western blot analysis probing for GSPT1 and N-Myc following treatment with Compound 345 (as indicated). Tubulin was used as a loading control. N-Myc could not be detected by western blotting in the NCI-H2023 line. 12B: Single-sample gene set enrichment analysis (ssGSEA) results for a Myc target gene set at 6 hours (left) and 24 hours (right) after treatment. ssGSEA scores were normalized to DMSOs for each cell line and averaged for three replicates. Error bars denote+/−1 s.d. across replicates.
NCI-H1836 and NCI-H1876 were taken as two representatives of L-Myc high SCLC. Western blot analysis probing for GSPT1 and L-Myc following treatment with Compound 345 as indicated. GAPDH was used as a loading control.
FIGS. 16A, 16B and 16C: Activity of Compound 345 in the c-Myc high multiple myeloma MM1S cell line. […] GAPDH was used as a loading control. […] Lenalidomide was used as a benchmark. 16C: Antiproliferative activity of Compound 345 (as indicated) following treatment with Compound 345 for 72 hr as assessed by Cell Titer Glo assay.
(§1) FIGS. 18A, 18B and 18C: Activity of Compound 345 in the c-Myc high WSU-DLCL2 lymphoma cell line. […] GAPDH was used as a loading control. 18B: Antiproliferative activity of Compound 345 (as indicated) following treatment with Compound 345 for 72 hr as assessed by Cell Titer Glo assay. […] Mice were dosed daily PO with vehicle or Compound 345 at 3, 10 mg/kg (as indicated). Tumor volumes were measured twice weekly. X-axis represents the number of days for treatment duration; y-axis represents mean tumor volume (in mm^3)±SEM. CHOP was used as a positive control for this model. Drug-free vehicle is represented by black circles; CHOP combination represented by light squares; Compound 345 3 mg/kg represented by triangles; Compound 345 10 mg/kg represented by dark squares.
as §1, with “19A, 19B,” for “18A, 18B”, “19C:” for “18C:”, “DOHH-2” for “WSU-DLCL2”, “19B:” for “18B:”, “model.” for “model. Drug-free vehicle is represented by black circles; CHOP combination represented by light squares; Compound 345 3 mg/kg represented by triangles; Compound 345 10 mg/kg represented by dark squares.”
Western blot analysis performed 24 hr post treatment initiation. GAPDH was used as a loading control. GSPT1 DC50 and Dmax as indicated.

[2] = system: HMEC engineered to express c-Myc tagged with EGFP; test: 3D spheroid assay, myc-HMEC (CellTiterGlo3D); format: cell-based; conditions: Homo sapiens, 120 h, myc-HMEC, 5 days, read-out: 3D spheroid assay Code (EC50, myc-HMEC assay)
Experimental: (§2) Human mammary epithelial cells (HMEC) were engineered to express either c-Myc tagged with EGFP or EGFP alone (non myc) (analogous but distinct from Kessler J D et al, Science. 2012 Jan. 20; 335(6066):348-53. doi: 10.1126/science.1212728; Hsu T Y et al, Nature. 2015 Sep. 17; 525(7569):384-8. doi: 10.1038/nature14985). The engineered cells were seeded at 1000 (myc) or 4000 (non myc) cells/well in a 384 ultra-low attachment plate in a total volume of 40 μL HMEC cell culture media (DMEM/F12+10% HI-FBS+15 mM HEPES+0.5 ug/ml Hydrocortisone+10 ug/ml Insulin+20 ng/ml EGF). Plates were spun at 1200 rpm for 5 minutes at room temperature to ensure that cells have gathered in the middle of the well and incubated at 37° C. for 48 hrs before firing with compounds. On Day 2 (48 h post seeding) cells were imaged (brightfield and EGFP fluorescence) using the Celigo imaging cytometer prior to firing compounds. For primary screens, compounds were added at three concentrations (1.25, 10 and 30 uM) in a volume of 120 nL using the ECHO acoustic dispenser and spun at 2000 rpm for 2 minutes at room temperature before incubating at 37° C. for 5 days. […] On Day 7, prior to measuring cell viability using CellTiterGlo3D, cells were imaged (brightfield and EGFP fluorescence) on the Celigo imaging cytometer. The CellTiterGlo3D reagent is added at 30 uL/well and incubated at room temperature for 30 mins. After 30 mins of incubation, luminescence readings were recorded using the Perkin Elmer EnVision reader.

GSPT1 [3] = target: T1, GSPT1; test: GSPT1 degradation immunofluorescence assay in CAL-51 cells; format: cell-based; set-up: endogenous in cells; host or cells: CAL-51 (DSMZ ACC302); conditions: 6 hours, Table 4, read-out: Activity for GSPT1 degradation, Code (DC50)
Experimental: CAL-51 cells were purchased from DSMZ (cat. Number ACC302), sub-cultured in 90% Dulbecco's MEM (4.5 g/L glucose, Gibco 11965)+10% heat inactivated FBS (BioConcept, 2-01F1361) and incubated at 37° C., 5% CO2. For the assay, imaging microtiterplate Cell Carrier 96 Ultra (Perkin Elmer 6055302) were pre-coated with Fibronectin (Sigma F085, 30 μl at 0.2 μg/ml) in PBS (100 μl, Gibco 14190) for 45 min at room temperature, rinsed with PBS and CAL-51 cells (30K cells/well) were plated and let to adhere overnight. Cells were treated with compounds typically using a serial dilution ranging from 30 μM to 0.1 nM for 6 hours. Compounds were stored at 10 mM DMSO stocks. Vehicle (DMSO), positive (CC-885, 10 μM) and rescue controls (positive control plus 0.2 μM bortezomib) were also included at this stage. Cells were subsequently rinsed with PBS and fixed in 10% Formalin solution (50 μl, Sigma HT5011)) for 20 mins at room temperature. Following three consecutive PBS washes (100 μl), cells were permeabilized in 0.1% Triton X-100 in PBS (Sigma 93443, 50 μl) for 15 mins at room temperature. Following three further PBS washes, 50 μl blocking buffer (1% BSA, Sigma A4503, in PBS) was added for 45 min for signal-to-noise reduction. Primary antibody (human GSPT1, Sigma HPA052488) was diluted in blocking buffer (dil. 1/300, 35 μl/well) and incubated with the cells overnight at 4° C. After three PBS washes, Alexa-fluor 488 coupled secondary antibodies (Invitrogen, A32731, dil. 1/1000), Alexa-fluor 647-Phalloidin (Invitrogen, A22287, dil. 1/200) and DAPI (Thermo, #62248, dil. 1/1000) were diluted in blocking buffer and incubated with the samples for 2 hours at room temperature. After three final PBS washes, samples were conserved in 100 μl PBS in the dark, until measurement. Image acquisition was performed on the Operetta High-Content Imager (Perkin-Elmer). Fluorescence intensity of Alexa-Fluor 488 (GSPT1), Alexa-Fluor 647 (Actin) and DAPI (Nucleus) were measured. For the determination of GSPT1 DC50 values, a custom algorithm implemented in the PerkinElmer image analysis software Harmony-Acapella® was developed. After user-defined setting of adjustment parameters, the analysis was run identically without human intervention for all image fields. DAPI staining of the nuclei was used to determine the location of cells using standard nuclei detection modules. Segmentation artifacts were removed by threshold-based filters for area, roundness and intensity. The outline of the cells was determined analogously from the sum of the normalized, smoothed DAPI and Actin channel, starting from each nucleus. The Alexa-Fluor 488 (GSPT1) signal intensity in each cell was finally measured, in order to obtain a Mean intensity per cell. GSPT1 degradation (DC50) was calculated after normalization to controls and data import in CDD vault Database, using non-linear regression.

[4] = system: HMEC engineered to express EGFP alone (non myc); test: 3D spheroid assay, non myc-HMEC (CellTiterGlo3D); format: cell-based; conditions: Homo sapiens, 120 h, 5 days, read-out: 3D spheroid assay Code (EC50, non myc-HMEC assay)
Experimental: as §2

[5] = target: T2, Full length wild-type cereblon CRBN (Homo sapiens, UniProt Q96SW2); test: Fluorescence polarization (FP) assay indicating cereblon binding; conditions: read-out: IC50 value
T2 construct: Full length wild-type cereblon CRBN (80.0 nM, 10 μL) was incubated in assay buffer
Outline: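 Full-length wild-type CRBN at 80.0 nM was preincubated 30 min at room temperature with compound (12-point curve, 300–0.937 or 3000–9.3 nM) in 20 mM HEPES pH 8.0, 150 NaCl, 0.5 mM TCEP, 0.05% Tween 20. Cy5-type thalidomide-based probe added at 5 nM final; FP read after 12 h (ex 590/em 675 nm), normalized to DMSO, IC50 fitted.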

T2 sequence (Q96SW2 whole entry): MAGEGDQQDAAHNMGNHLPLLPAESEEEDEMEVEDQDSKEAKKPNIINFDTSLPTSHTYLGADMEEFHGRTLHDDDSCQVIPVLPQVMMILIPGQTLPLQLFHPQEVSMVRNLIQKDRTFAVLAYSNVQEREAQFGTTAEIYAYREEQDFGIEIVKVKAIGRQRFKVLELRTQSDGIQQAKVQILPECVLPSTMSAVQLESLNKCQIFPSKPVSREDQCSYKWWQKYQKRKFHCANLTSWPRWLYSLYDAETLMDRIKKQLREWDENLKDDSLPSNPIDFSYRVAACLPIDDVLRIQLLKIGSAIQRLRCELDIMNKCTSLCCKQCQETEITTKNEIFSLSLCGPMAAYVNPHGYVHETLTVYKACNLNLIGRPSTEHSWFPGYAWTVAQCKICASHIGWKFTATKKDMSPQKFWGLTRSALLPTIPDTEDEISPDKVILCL
T1 sequence (P15170 whole entry): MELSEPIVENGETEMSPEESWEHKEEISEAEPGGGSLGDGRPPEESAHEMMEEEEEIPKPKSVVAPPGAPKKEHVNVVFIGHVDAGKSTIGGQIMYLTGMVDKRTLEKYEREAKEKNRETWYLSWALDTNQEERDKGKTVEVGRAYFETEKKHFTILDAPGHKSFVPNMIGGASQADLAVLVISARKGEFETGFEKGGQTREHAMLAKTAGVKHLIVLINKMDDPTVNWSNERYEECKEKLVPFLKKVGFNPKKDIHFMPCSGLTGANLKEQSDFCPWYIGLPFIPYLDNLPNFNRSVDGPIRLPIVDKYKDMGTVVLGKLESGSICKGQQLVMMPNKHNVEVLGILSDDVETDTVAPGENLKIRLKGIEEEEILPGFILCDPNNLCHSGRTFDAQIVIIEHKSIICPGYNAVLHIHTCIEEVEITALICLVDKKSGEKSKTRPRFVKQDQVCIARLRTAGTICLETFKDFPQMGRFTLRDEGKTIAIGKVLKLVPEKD
T1 sequence (Q96SW2 whole entry): as the sequence (Q96SW2 whole entry) above
T1 sequence (Q16531 whole entry partner): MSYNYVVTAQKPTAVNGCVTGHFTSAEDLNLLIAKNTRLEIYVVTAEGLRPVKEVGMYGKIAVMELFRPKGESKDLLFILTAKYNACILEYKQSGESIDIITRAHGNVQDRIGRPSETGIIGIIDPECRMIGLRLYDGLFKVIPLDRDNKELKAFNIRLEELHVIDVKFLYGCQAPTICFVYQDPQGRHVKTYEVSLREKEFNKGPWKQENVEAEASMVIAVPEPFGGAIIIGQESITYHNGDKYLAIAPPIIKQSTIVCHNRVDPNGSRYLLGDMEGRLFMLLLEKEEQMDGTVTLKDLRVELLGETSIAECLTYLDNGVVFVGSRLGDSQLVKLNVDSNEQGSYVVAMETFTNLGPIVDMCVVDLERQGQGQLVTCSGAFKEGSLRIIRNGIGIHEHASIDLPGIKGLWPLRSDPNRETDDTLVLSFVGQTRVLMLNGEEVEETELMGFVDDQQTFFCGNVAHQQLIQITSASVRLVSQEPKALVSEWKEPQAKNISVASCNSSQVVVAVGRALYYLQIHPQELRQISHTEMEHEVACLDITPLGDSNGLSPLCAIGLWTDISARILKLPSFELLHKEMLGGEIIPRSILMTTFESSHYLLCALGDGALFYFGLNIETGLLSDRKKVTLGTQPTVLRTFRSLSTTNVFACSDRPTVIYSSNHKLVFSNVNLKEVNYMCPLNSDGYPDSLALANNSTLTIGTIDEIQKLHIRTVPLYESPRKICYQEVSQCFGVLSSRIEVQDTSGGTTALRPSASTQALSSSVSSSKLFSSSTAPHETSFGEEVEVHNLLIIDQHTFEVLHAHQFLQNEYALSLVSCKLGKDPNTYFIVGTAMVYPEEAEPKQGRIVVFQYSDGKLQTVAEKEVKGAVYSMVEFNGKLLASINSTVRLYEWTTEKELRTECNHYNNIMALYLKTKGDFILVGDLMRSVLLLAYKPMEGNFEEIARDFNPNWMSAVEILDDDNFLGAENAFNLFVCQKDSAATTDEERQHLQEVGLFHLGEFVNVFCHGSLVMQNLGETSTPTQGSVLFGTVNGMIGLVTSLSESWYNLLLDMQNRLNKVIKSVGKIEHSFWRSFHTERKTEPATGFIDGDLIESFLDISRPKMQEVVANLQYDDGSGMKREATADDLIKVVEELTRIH

Row | Structure (SMILES) | GSPT1 level with proteasome inhibitor added (GSPT1 [1]) | EC50 [2] | DC50 (GSPT1 [3]) | EC50 [4] | IC50 ([5]; bound stated) | IC50 ([5]; bounds stated)
1 | CC(C)C[C@H](NC(=O)[C@H](Cc1ccccc1)NC(=O)c1cnccn1)B(O)O [Bortezomib, reference compound] | rescued GSPT1 from degradation |  |  |  |  | 
2 | O=C1CCC(N2Cc3ccc(CNC(=O)Nc4ccc(Br)cc4)cc3C2=O)C(=O)N1 (stereo not drawn) [Compound 9] |  | > 2000 nM | > 300 nM | > 10000 nM | < 1100 nM | < 600 nM
3 | COc1ccc(CCNC(=O)NCc2ccc3c(c2)C(=O)N(C2CCC(=O)NC2=O)C3)cc1 (stereo not drawn) [Compound 51] |  | > 2000 nM |  | > 10000 nM |  | < 600 nM
4 | COc1ccccc1CNC(=O)NCc1ccc2c(c1)C(=O)N(C1CCC(=O)NC1=O)C2 (stereo not drawn) [Compound 60] |  | > 2000 nM |  | > 10000 nM |  | < 600 nM

Reference: US20240261274A1, “TREATMENT OF MYC-DRIVEN CANCERS WITH GSPT1 DEGRADERS” (MONTE ROSA THERAPEUTICS, INC., priority 2021, published 2024)
